Measured values published in article PMC7050258, “Inhibition of MGAT2 modulates fat‐induced gut peptide release and fat intake in normal mice and ameliorates obesity and diabetes in ob/ob mice fed on a high‐fat diet” (FEBS Open Bio, 2020).
“And” between values parts separate entries of the source, which are not always exact repeats. Identical values can stand only once.

Key:
[1] = test system: HFD-fed ob/ob mice; experiment: HFD-fed ob/ob mice study; assay type: in vivo, mouse
Protocol: Male ob/ob mice were fed an HFD (D12451; Research Diets, Inc.) from 8 weeks of age to the end of the study. After 2 weeks of HFD feeding, the mice were divided into groups based on their body weight, food intake, glycated hemoglobin (GHb), and plasma biochemical parameters. […] Compounds were suspended in 0.5% methylcellulose. Body weight and food intake were monitored during the study. On day 34, blood was collected and GHb and plasma biochemical parameters were measured. In addition, body composition was analyzed by EchoMRI‐900 (Hitachi Aloka Medical, Ltd., Tokyo, Japan). On day 36, the mice in the vehicle‐ and CpdB‐treated group were individually placed in the metabolic chamber of an Oxymax system (Columbus Instruments, Columbus, OH, USA). After 3 h of adaptation, oxygen consumption (VO2) and carbon dioxide production (VCO2) were analyzed for 22 h (from 13:00 to 11:00). During the measurement, dosing of vehicle or CpdB was performed at 18:00. Respiratory quotient (RQ) and energy expenditure (EE) were calculated with the following formulas: RQ=VCO2/VO2 EEkcal/h=3.815+1.232×VCO2/VO2×VO2
(§1) Blood samples were collected from the tail or facial vein without anesthesia and centrifuged at 1500 g for 10 min at 4 °C to isolate the plasma. To prevent degradation of incretin hormone, blood samples were treated with not only heparin/aprotinin but also a dipeptidyl peptidase‐4 (DPP‐4) inhibitor. Plasma alanine aminotransferase […] levels were measured by an Autoanalyzer 7180 (Hitachi High‐Technologies Corporation, Tokyo, Japan). GHb was measured with an automated GHb analyzer (HLC‐723G8; Tosoh, Tokyo, Japan). Plasma insulin was measured with an ELISA kit (Shibayagi Co., Ltd., Gunma, Japan). Plasma levels of total GLP‐1 and total PYY were also measured with an ELISA kit (Wako Pure Chemicals).

[2] = test system: C57BL/6J mice; experiment: Fat-induced gut peptide release and plasma TG after meal or oil load; assay type: in vivo, mouse; details: for Plasma total GLP-1 at 3 h, AVE / ΔPlasma total PYY AUC (0-2 h), AVE / Plasma total GLP-1 at 3 h, individual animal / ΔPlasma total PYY AUC (0-2 h), individual animal: CpdB 10 mg/kg oral; for Plasma total GLP-1 at 3 h, AVE / ΔPlasma total PYY AUC (0-2 h), AVE / Plasma TG at 2 h after oil load, AVE: mean, N=5; for Plasma total GLP-1 at 3 h, individual animal / ΔPlasma total PYY AUC (0-2 h), individual animal / Plasma TG at 2 h after oil load, individual animal: single animal values
Protocol: CpdB was suspended in 0.5% methylcellulose. Thirty minutes after administration, fat was loaded via oral gavage of either olive oil (8 mL·kg^−1) or liquid meal as described above (10 mL·kg^−1). Blood samples were collected precompound administration (defined as 0 h) and 1, 2, and 3 h after fat loading. Plasma levels of peptide tyrosine–tyrosine (PYY) and GLP‐1 were measured. To confirm the in vivo efficacy of CpdB, plasma TG levels were measured 2 h after olive oil loading. Mice orally loaded with water (8 mL·kg^−1) following vehicle administration were prepared as the control group.
as §1

[3] = biological target: mouse MGAT2 (Mus musculus, UniProt Q80W94); experiment: in vitro inhibitory activity against MGAT2 (mouse); assay type: biochemical
Protocol: (§2) CpdB, CpdA, and pioglitazone were synthesized at Takeda Pharmaceutical Co., Ltd. (Tokyo, Japan). The in vitro inhibitory activities of CpdB and CpdA against MGAT2 and related acyltransferases (DGAT1, DGAT2, and ACAT1) were evaluated as described in our previous report 17 and patent application 19. Liraglutide (Victoza) was purchased from Novo Nordisk Pharma Ltd. (Bagsvaerd, Denmark). All other chemicals were of analytical grade and purchased from Wako Pure Chemicals (Osaka, Japan).

[4] = test system: C57BL/6J mice; experiment: Food choice test (HFD vs LFD); assay type: in vivo, mouse; details: overnight, CpdB 10 mg/kg oral, liraglutide 0.04 mg/kg sc
Protocol: The choice between HFD (D12451; Research Diets, Inc.) and low‐fat diet (LFD, 10% kcal fat, 3.8 kcal·g^−1; D124510B; Research Diets, Inc.) was assessed in C57BL/6J mice. Following habituation to normal chow, HFD and LFD were presented in separate containers simultaneously, and overnight food intake of each diet was monitored. The mice were divided into groups based on the data of food intake and body weight. Then, vehicle or CpdB (10 mg·kg^−1) was orally administered, and the overnight food intake of each diet was monitored. CpdB was suspended in 0.5% methylcellulose. As a positive control, liraglutide (0.04 mg·kg^−1) dissolved in 10% DMSO/saline was subcutaneously administered.

[5] = biological target: T1, DGAT2 human (Homo sapiens, UniProt Q96PD7); experiment: in vitro inhibitory activity against DGAT2; assay type: biochemical
T1 sequence (Q96PD7 1-388): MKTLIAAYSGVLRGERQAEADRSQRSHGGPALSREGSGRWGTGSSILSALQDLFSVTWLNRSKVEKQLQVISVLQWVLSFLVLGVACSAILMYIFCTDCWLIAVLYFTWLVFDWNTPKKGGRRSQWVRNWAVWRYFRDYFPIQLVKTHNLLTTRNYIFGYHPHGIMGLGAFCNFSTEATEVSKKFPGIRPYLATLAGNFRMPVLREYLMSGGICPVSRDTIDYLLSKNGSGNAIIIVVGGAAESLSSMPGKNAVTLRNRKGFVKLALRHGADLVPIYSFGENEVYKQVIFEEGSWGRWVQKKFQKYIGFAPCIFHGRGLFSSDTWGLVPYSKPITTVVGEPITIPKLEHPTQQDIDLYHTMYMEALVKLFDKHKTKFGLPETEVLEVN
Protocol: as §2

[6] = CpdB 30 mg/kg, pioglitazone 3 mg/kg oral once daily, mean
[7] = CpdB 30 mg/kg, pioglitazone 3 mg/kg oral once daily, single animal values
[8] = EchoMRI, day 34, CpdB 30 mg/kg, pioglitazone 3 mg/kg, mean
[9] = EchoMRI, day 34, CpdB 30 mg/kg, pioglitazone 3 mg/kg, single animal values
[10] = dark phase, day 36, CpdB 30 mg/kg, mean
[11] = dark phase, day 36, CpdB 30 mg/kg, single animal values
[12] = day 34, CpdB 30 mg/kg, pioglitazone 3 mg/kg oral once daily, mean ± SD, n=8
[13] = light phase, day 36, CpdB 30 mg/kg, mean
[14] = light phase, day 36, CpdB 30 mg/kg, single animal values

Chain of mouse MGAT2 (Q80W94 whole entry): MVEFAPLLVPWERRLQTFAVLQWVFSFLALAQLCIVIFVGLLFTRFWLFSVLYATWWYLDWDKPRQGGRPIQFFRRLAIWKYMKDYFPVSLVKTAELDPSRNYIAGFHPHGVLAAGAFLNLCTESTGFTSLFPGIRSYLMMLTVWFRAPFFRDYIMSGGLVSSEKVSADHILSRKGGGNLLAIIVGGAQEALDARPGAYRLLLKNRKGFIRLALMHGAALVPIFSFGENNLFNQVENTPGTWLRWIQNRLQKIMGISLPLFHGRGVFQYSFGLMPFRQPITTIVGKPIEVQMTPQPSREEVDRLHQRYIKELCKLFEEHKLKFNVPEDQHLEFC

- IC50 [3]: 0.85 nM
- IC50 [5]: > 30000 nM
Compound: CC(C)(OC(=O)N[C@H]1CC[C@H](OC(=O)N2CCc3cc(S(=O)(=O)Nc4c(F)cc(Cl)cc4F)cc(N4CCCC4=O)c32)CC1)C(F)(F)F [CpdB]
- Body weight change from initial, AVE [1, 6]: 16.96%
- Cumulative food intake, AVE [1, 6]: 119.28 g
- Body weight change from initial, individual animal [1, 7]: 14.99% and 19.62% and 18.91% and 14.63% and 13.72% and 24.18% and 12.96% and 16.65%
- Cumulative food intake, individual animal [1, 7]: 119.82 g and 117.97 g and 119.56 g and 119.18 g and 110.06 g and 129.88 g and 111.80 g and 125.96 g
- Body composition, Fat, AVE [1, 8]: 59.70%
- Body composition, Lean, AVE [1, 8]: 40.30%
- Body composition, Fat, individual animal [1, 9]: 63.06% and 55.96% and 61.22% and 59.99% and 59.40% and 60.55% and 59.10% and 58.29%
- Body composition, Lean, individual animal [1, 9]: 38.78% and 40.01% and 40.60% and 39.45% and 40.90% and 41.71% and 36.94% and 44.04%
- GHb, Pre ([1]; before dosing, mean ± SD, n=8): 5.9 ± 0.4%
- Plasma ALT, Pre ([1]; before dosing, mean ± SD, n=8): 378 ± 76 U·L^−1
- Plasma AST, Pre ([1]; before dosing, mean ± SD, n=8): 333 ± 64 U·L^−1
- Plasma insulin, Pre ([1]; before dosing, mean ± SD, n=8): 106 ± 30 ng/mL
- ΔGHb, AVE ([1]; change 34 days after repeated dosing, CpdB 30 mg/kg, pioglitazone 3 mg/kg oral once daily, mean): -0.45%
- ΔGHb, individual animal ([1]; change 34 days after repeated dosing, CpdB 30 mg/kg, pioglitazone 3 mg/kg, single animal values): 0.60% and -0.50% and -0.20% and -1.10% and -0.60%
- Average EE, Dark, AVE [1, 10]: 0.55 kcal/h
- Average RQ, Dark, AVE [1, 10]: 0.87
- Average EE, Dark, individual animal [1, 11]: 0.61 kcal/h and 0.55 kcal/h and 0.54 kcal/h and 0.52 kcal/h and 0.53 kcal/h
- Average RQ, Dark, individual animal [1, 11]: 0.88 and 0.87 and 0.85 and 0.86
- GHb, Post [1, 12]: 5.4 ± 0.6 %
- Plasma ALT, Post [1, 12]: 632 ± 144 U·L^−1
- Plasma AST, Post [1, 12]: 492 ± 122 U·L^−1
- Plasma insulin, Post ([1]; day 34, CpdB 30 mg/kg, pioglitazone 3 mg/kg oral once daily, nonfasting, mean ± SD, n=8): 109 ± 40 ng/mL
- Average EE, Light, AVE [1, 13]: 0.45 kcal/h
- Average RQ, Light, AVE [1, 13]: 0.83
- Average EE, Light, individual animal [1, 14]: 0.46 kcal/h and 0.42 kcal/h and 0.43 kcal/h and 0.44 kcal/h and 0.49 kcal/h and 0.48 kcal/h
- Average RQ, Light, individual animal [1, 14]: 0.82 and 0.83 and 0.84 and 0.80
- Plasma total GLP-1 at 3 h, AVE ([2]; liquid meal load): 1.78 pM
- ΔPlasma total PYY AUC (0-2 h), AVE ([2]; liquid meal load): 6.19 pMxh
- Plasma total GLP-1 at 3 h, individual animal ([2]; liquid meal load): 4.08 pM and 1.57 pM and 0.30 pM and 2.65 pM
- ΔPlasma total PYY AUC (0-2 h), individual animal ([2]; liquid meal load): 7.70 pMxh and -9.56 pMxh and 10.56 pMxh and 11.27 pMxh and 10.99 pMxh
- Plasma TG at 2 h after oil load, AVE ([2]; oil load, 10 mg/kg oral): 242.5 mg/dL
- Plasma TG at 2 h after oil load, individual animal ([2]; oil load, 10 mg/kg oral, 10 mg/kg): 165.0 mg/dL and 186.0 mg/dL and 337.8 mg/dL and 259.8 mg/dL and 264.0 mg/dL
- Plasma TG at 2 h after oil load, AVE ([2]; oil load, 30 mg/kg oral): 219.8 mg/dL
- Plasma TG at 2 h after oil load, individual animal ([2]; oil load, 30 mg/kg oral, 30 mg/kg): 261.0 mg/dL and 281.4 mg/dL and 164.4 mg/dL and 231.0 mg/dL and 161.4 mg/dL
- Plasma total GLP-1 at 3 h, AVE ([2]; oil load): 17.63 pM
- ΔPlasma total PYY AUC (0-2 h), AVE ([2]; oil load): 68.45 pMxh
- Plasma total GLP-1 at 3 h, individual animal ([2]; oil load): 14.07 pM and 19.72 pM and 15.79 pM and 16.41 pM and 22.18 pM
- ΔPlasma total PYY AUC (0-2 h), individual animal ([2]; oil load): 83.34 pMxh and 44.80 pMxh and 90.28 pMxh and 47.69 pMxh and 76.14 pMxh
- Food intake, energy intake of HFD, AVE ([4]; mean, N=5): 9.74 kcal
- Food intake, energy intake of low-fat diet, AVE ([4]; mean, N=5): 0.16 kcal
- Food intake, total energy intake, AVE ([4]; mean, N=5): 9.90 kcal
- Food intake, energy intake of HFD, individual animal ([4]; single animal values): 9.96 kcal and 11.47 kcal and 8.41 kcal and 8.88 kcal
- Food intake, energy intake of low-fat diet, individual animal ([4]; single animal values): 0.23 kcal and 0.00 kcal and 0.34 kcal
- Food intake, total energy intake, individual animal ([4]; single animal values): 10.19 kcal and 11.47 kcal and 8.41 kcal and 9.23 kcal
